From patent publication US7498357B2, “Chalcone compounds” (Takara Bio Inc., priority 2003, dated 2009)

Experiments:
[1] = molecular target: T1, aldose reductase derived from human muscle cells (Homo sapiens, UniProt P15121); assay: Inhibitory activities of aldose reductase; format: biochemical; conditions: for inhibitory activities of aldose reductase (in words): concentrations as in Table 1; for inhibition at 10 µM: final concentration 10 μM; for inhibition at 10 µM / inhibition at 20 µM / inhibition at 40 µM: average of two values, read-out: Inhibitory Ratio (%) of Aldose Reductase; for inhibition at 20 µM: final concentration 20 μM; for inhibition at 40 µM: final concentration 40 μM
T1 construct: purchased Wako Pure Chemical Industries
Protocol: Inhibitory activities of aldose reductase of the compounds prepared in Examples 1 to 9 (TB3, TB4, TB5, TB6, TB7, TB8, TB9, compound (C081) or compound (C042)) were measured by the following method. Twenty microliters of 100 mM methylglyoxal was added to 10 μL of a sample (dissolved each compound in a 50% aqueous dimethyl sulfoxide solution), 100 μL of 0.2 M phosphate buffer (pH 6.2), 20 μL of 1 mM NADPH (phosphate buffer), and 10 μL of a solution of aldose reductase derived from human muscle cells (0.1 U/mL, manufactured by Wako Pure Chemical Industries, phosphate buffer). After 30 seconds passed, change in absorbance of NADPH at 340 nm was determined for 180 seconds. A 50% aqueous dimethyl sulfoxide solution was used as a negative control in place of the sample. In addition, the absorbance was determined using distilled water as a blank of each sample in place of the methylglyoxal solution. The found values are expressed as an average of the values in two experimental values. The inhibitory ratio (%) of aldose reductase was calculated in accordance with the following formula. Inhibitory Ratio (%)=[1−[(ΔAs−ΔAsb)/(ΔAc−ΔAcb)]]×100
Here, ΔAs and ΔAc are changes in absorbance per 1 minute of a sample solution, and a negative control solution, respectively, and ΔAsb and ΔAcb are changes in absorbance per 1 minute of blank of a sample solution, and a negative control solution, respectively.

RAW 264.7 cells = assay: Suppressive activities of NO production (LPS-induced, NO2- by Griess reagent); format: cell-based; conditions: for inhibition at 10 µM / inhibition at 20 µM / inhibition at 5 µM: Mus musculus, LPS, 16 hours, read-out: Suppressive Ability for Induction of NO Production by LPS (%); for inhibition at 10 µM: RAW264.7, 10 μM; for inhibition at 20 µM: RAW264.7, 20 μM; for suppression of the induction of NO production by LPS (in words): concentrations as in Table 2; for inhibition at 5 µM: RAW264.7, 5 μM
Protocol: Suppressive activities of NO production of the compounds prepared in Examples 1 to 9 (TB3, TB4, TB5, TB6, TB7, TB8, TB9, compound (C081) and compound (C042)) were measured by the following method. RAW 264.7 cells (ATCC TIB 71) were suspended in Dulbecco's modified Eagle's medium (manufactured by Sigma, D5796) containing 10% fetal bovine serum (manufactured by Bio Whittaker, 14-506F), so as to have a concentration of 4×10^5 cells/mL, and the suspension was put to each well of a 48-well microtiter plate in an amount of 500 μL per well. The cells were cultured at 37° C. in the presence of 5% carbon dioxide gas. After 24 hours, the medium was exchanged with Dulbecco's modified Eagle's medium (manufactured by Bio Whittaker, 12-917F) containing 10% fetal bovine serum (manufactured by Bio Whittaker), 2 mM L-glutamine (manufactured by Life Tech Oriental Co., Ltd., 25030-149) without containing phenol red. A 10 mM, 5 mM, or 2.5 mM TB3, TB4, TB5, TB6, TB7, TB8, TB9, compound (C081) or compound (C042) (all are dimethyl sulfoxide solution) was added to each well in an amount of 1 μL per well. After additional 1 hour of culture, a 100 μg/mL aqueous lipopolysaccharide (LPS, manufactured by Sigma, L-2010) solution was added to each well in an amount of 5 μL per well, and the cells were cultured for 16 hours. Thereafter, the concentration of NO2^− which was produced by oxidation of NO in the medium was determined. In addition, there was set a group with addition of dimethyl sulfoxide in place of the each compound as a control. After the above-mentioned culture, 100 μL of a 4% grease reagent (manufactured by Sigma, G4410) was added to 100 μL of the supernatant of the culture medium, and the mixture was allowed to stand at room temperature for 15 minutes. Thereafter, absorbance at 540 nm was determined. The concentration of NO2^− in the medium was calculated from a calibration curve prepared from known concentrations of NaNO2 (manufactured by Sigma, S2252). All of the determinations were carried out twice. The suppressive ability of NO production of the each compound was calculated in accordance with the following formula.

Row | Structure (SMILES) | inhibition at 10 µM [1] [%] | inhibition at 20 µM [1] [%] | inhibition at 40 µM [1] [%] | inhibitory activities of aldose reductase (in words) [1] | inhibition at 10 µM (RAW 264.7 cells) [%] | inhibition at 20 µM (RAW 264.7 cells) [%] | suppression of the induction of NO production by LPS (in words) (RAW 264.7 cells) | inhibition at 5 µM (RAW 264.7 cells) [%]
1 | CC(C)CCc1c(O)ccc(C(=O)/C=C/c2ccc(O)cc2)c1O [Compound (C042), 1-[2,4-dihydroxy-3-(3-methylbutyl)phenyl]-3-(4-hydroxyphenyl)-2-propen-1-one] | 47.8 | 68.7 | – | inhibitory activities of aldose reductase in a concentration-dependent manner | 19.3 | 50.2 | suppressed the induction of NO production by LPS in a concentration-dependent manner | –
2 | CC(C)=CCCC(C)(O)C1Cc2c(ccc(C(=O)/C=C/c3ccc(O)cc3)c2O)O1 (centres unmarked) [TB3, 1-[2,3-dihydro-4-hydroxy-2-(1-hydroxy-1,5-dimethyl-4-hexenyl)-benzofuran-5-yl]-3-(4-hydroxyphenyl)-2-propen-1-one] | 14.2 | 30.1 | 53.8 | inhibitory activities of aldose reductase in a concentration-dependent manner | 9.5 | 43.8 | suppressed the induction of NO production by LPS in a concentration-dependent manner | 8.9
3 | COc1ccc(C(=O)/C=C/c2ccc(O)cc2)c2c1CC(C(C)(C)O)O2 (centres unmarked) [TB4, 1-[2,3-dihydro-2-(1-hydroxy-1-methylethyl)-4-methoxybenzofuran-7-yl]-3-(4-hydroxyphenyl)-2-propen-1-one] | 57.4 | 57.9 | – | inhibitory activities of aldose reductase in a concentration-dependent manner | 56.4 | 63.7 | suppressed the induction of NO production by LPS in a concentration-dependent manner | 32.6
4 | CCOC(C)(C)C(O)CC/C(C)=C/Cc1c(O)ccc(C(=O)/C=C/c2ccc(O)cc2)c1O (centres unmarked) [TB6, 1-[3-(7-ethoxy-6-hydroxy-3,7-dimethyl-2-octenyl)-2,4-dihydroxyphenyl]-3-(4-hydroxyphenyl)-2-propen-1-one] | 41.9 | 56.5 | 66.8 | inhibitory activities of aldose reductase in a concentration-dependent manner | 29.4 | 62.2 | suppressed the induction of NO production by LPS in a concentration-dependent manner | 17.3
5 | COc1ccc(C(=O)/C=C/c2ccc(O)cc2)c(O)c1CC1C2(C)CCC(O2)C1(C)C (centres unmarked) [TB7, 1-[3-(2,5-epoxy-2,6,6-trimethyl-cyclohexylmethyl)-2-hydroxy-4-methoxyphenyl]-3-(4-hydroxyphenyl)-2-propen-1-one] | 20.1 | 33.8 | 54.3 | inhibitory activities of aldose reductase in a concentration-dependent manner | 23.9 | 42.9 | suppressed the induction of NO production by LPS in a concentration-dependent manner | 12.2

More lines, main results first:

Row | inhibition at 10 µM [1] [%] | inhibition at 20 µM [1] [%] | inhibition at 40 µM [1] [%] | Structure (SMILES) | inhibitory activities of aldose reductase (in words) [1] | inhibition at 10 µM (RAW 264.7 cells) [%] | inhibition at 20 µM (RAW 264.7 cells) [%] | suppression of the induction of NO production by LPS (in words) (RAW 264.7 cells) | inhibition at 5 µM (RAW 264.7 cells) [%]
6 | 11.9 | 16.2 | 26.7 | COc1ccc(C(=O)/C=C/c2ccc(O)cc2)c(O)c1C/C=C(\C)C/C=C/C(C)(C)O [Compound (C081), 1-[2-hydroxy-3-(7-hydroxy-3,7-dimethyl-2,5-octadienyl)-4-methoxyphenyl]-3-(4-hydroxyphenyl)-2-propen-1-one] | inhibitory activities of aldose reductase in a concentration-dependent manner | 31.6 | 53.7 | suppressed the induction of NO production by LPS in a concentration-dependent manner | –
7 | 35.1 | 49.7 | 66.7 | C/C(=C\Cc1c(O)ccc(C(=O)/C=C/c2ccc(O)cc2)c1O)CCC(O)C(C)(C)O (centres unmarked) [TB5, 1-[2,4-dihydroxy-3-(6,7-dihydroxy-3,7-dimethyl-2-octenyl)phenyl]-3-(4-hydroxyphenyl)-2-propen-1-one] | inhibitory activities of aldose reductase in a concentration-dependent manner | 35.2 | 76 | suppressed the induction of NO production by LPS in a concentration-dependent manner | 17.9
8 | 17.9 | 32.7 | 44.2 | COc1ccc(C(=O)/C=C/c2ccc(O)cc2)c(O)c1C/C=C(\C)C/C=C/C(C)(C)OO [TB8, 1-[2-hydroxy-3-(7-hydroperoxy-3,7-dimethyl-2,5-octadienyl)-4-methoxyphenyl]-3-(4-hydroxyphenyl)-2-propen-1-one] | inhibitory activities of aldose reductase in a concentration-dependent manner | 18.7 | 36.9 | suppressed the induction of NO production by LPS in a concentration-dependent manner | 12.2
9 | 31.6 | 44.7 | 57.3 | C=C(C)C(CC/C(C)=C/Cc1c(OC)ccc(C(=O)/C=C/c2ccc(O)cc2)c1O)OO (centres unmarked) [TB9, 1-[2-hydroxy-3-(6-hydroperoxy-3,7-dimethyl-2,7-octadienyl)-4-methoxyphenyl]-3-(4-hydroxyphenyl)-2-propen-1-one] | inhibitory activities of aldose reductase in a concentration-dependent manner | 29.2 | 49.6 | suppressed the induction of NO production by LPS in a concentration-dependent manner | 11.2
